{
  "source": "paper PMC9469100",
  "about": "“Turning Nonselective Inhibitors of Type I Protein Arginine Methyltransferases into Potent and Selective Inhibitors of Protein Arginine Methyltransferase 4 through a Deconstruction–Reconstruction and Fragment-Growing Approach” (Journal of Medicinal Chemistry, 2022)",
  "key": {"PRMT4 (MCF7 cells)": {"system": "PRMT4 (MCF7 cells)", "assay": "Western blot with pan-PRMT4 substrate antibody, MCF7", "conditions": "12h 10 and 50 μM, TP-064 10 μM; 4 and 8 days; PRMT4sub immunoblot"}, "HEK293T cells": {"system": "HEK293T cells", "assay": "Cell proliferation assay (CellTiter-Glo), HEK293T", "assay_type": "cell-based, human", "conditions": "10 μM TP064; 50 μM 12h; up to day 8", "description": "(§1) HEK293T cells were seeded into 96-well plates at the density of 250 cells/well in 100 μL of medium. MCF7 cells were seeded into 96-well plates at the density of 1000 cells/well in 100 μL of medium. Cell proliferation was analyzed at day 0, day 2, day 4, day 6, and day 8, and the medium was changed at day 4. The proliferation analysis was based on viability as determined by CellTiter-Glo (#G7572, Promega) according to the manufacturer’s instructions. Triple independent repeats were conducted."}, "MCF7 cells": {"system": "MCF7 cells", "assay": "Cell proliferation assay (CellTiter-Glo), MCF7", "assay_type": "cell-based, human", "conditions": "10 μM TP064; 50 μM 12h; up to day 8", "description": "as §1"}, "PRMT4 (HEK293T cells)": {"system": "PRMT4 (HEK293T cells)", "assay": "Western blot with pan-PRMT4 substrate antibody, HEK293T", "conditions": "TP-064 concentrations higher than 10 μM"}, "SMYD3": {"target": "SMYD3 (Homo sapiens, UniProt Q9H7B4)", "sequence (Q9H7B4 whole entry)": "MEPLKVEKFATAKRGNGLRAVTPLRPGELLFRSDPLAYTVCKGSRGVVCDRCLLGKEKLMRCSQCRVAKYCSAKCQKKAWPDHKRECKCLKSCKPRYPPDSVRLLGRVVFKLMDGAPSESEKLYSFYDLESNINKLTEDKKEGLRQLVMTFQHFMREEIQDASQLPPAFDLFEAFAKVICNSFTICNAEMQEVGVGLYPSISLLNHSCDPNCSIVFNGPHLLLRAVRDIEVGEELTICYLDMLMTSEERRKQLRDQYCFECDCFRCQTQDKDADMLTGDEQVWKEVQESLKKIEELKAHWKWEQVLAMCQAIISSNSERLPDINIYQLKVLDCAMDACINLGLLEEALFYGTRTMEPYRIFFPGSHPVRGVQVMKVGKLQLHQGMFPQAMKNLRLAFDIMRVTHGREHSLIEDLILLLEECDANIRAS", "assay": "HotSpot KMT activity assay, SMYD3", "assay_type": "biochemical", "conditions": "10-dose mode, 3-fold dilution starting at 100 µM; read-out: ref. cmpd. IC50 (µM), SMYD3", "description": "(§2) Then, ^3H-SAM (final concentration 1 μM) was delivered into the reaction mixture to initiate the reaction. After incubation for 60 min at 30 °C, the reaction mixture was delivered to filter-paper for detection (as assessed by scintillation). […] No inhibitor control (DMSO) was considered as 100% enzyme activity. Data were analyzed using Excel and GraphPad Prism 6.0 software (GraphPad Software Inc., San Diego, CA). Values obtained for each compound are mean ± SD determined for two separate experiments."}, "MLL1 complex": {"target": "T1, MLL1 complex (Homo sapiens, UniProt Q03164)", "T1 construct": "including MLL1 residues 3745–3969, C-terminus; His (N); purchased Reaction Biology Corporation", "assay": "HotSpot KMT activity assay, MLL1", "assay_type": "biochemical", "conditions": "10-dose mode, 3-fold dilution starting at 100 µM; read-out: ref. cmpd. IC50 (µM), MLL1", "description": "as §2"}, "SET7/9": {"target": "T2, SET7/9 (Homo sapiens, UniProt Q8WTS6)", "T2 construct": "SET7/9 (residues 2–366, C-terminus); with a N-terminal GST-tag and a C-terminal His-tag; GST (N); His (C); purchased Reaction Biology Corporation", "T2 sequence (Q8WTS6 2-366)": "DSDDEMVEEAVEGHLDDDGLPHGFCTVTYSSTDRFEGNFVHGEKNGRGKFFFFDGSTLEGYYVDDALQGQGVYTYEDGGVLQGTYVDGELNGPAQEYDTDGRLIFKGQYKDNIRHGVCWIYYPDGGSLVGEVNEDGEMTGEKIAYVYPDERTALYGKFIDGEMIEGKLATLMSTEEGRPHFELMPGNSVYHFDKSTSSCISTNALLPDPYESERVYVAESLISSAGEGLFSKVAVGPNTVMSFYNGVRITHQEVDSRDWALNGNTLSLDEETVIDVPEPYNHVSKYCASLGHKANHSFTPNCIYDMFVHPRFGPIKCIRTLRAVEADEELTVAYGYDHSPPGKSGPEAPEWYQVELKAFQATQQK", "assay": "HotSpot KMT activity assay, SET7/9", "assay_type": "biochemical", "conditions": "10-dose mode, 3-fold dilution starting at 100 µM; read-out: ref. cmpd. IC50 (µM), SET7/9", "description": "as §2"}, "SUV39H2": {"target": "T3, SUV39H2 (Homo sapiens, UniProt Q9H5I1)", "T3 construct": "SUV39H2 (residues 46–410, C-terminus); N-terminal fusion protein with a C-terminal His-tag; His (C); purchased Reaction Biology Corporation", "T3 sequence (Q9H5I1 46-410)": "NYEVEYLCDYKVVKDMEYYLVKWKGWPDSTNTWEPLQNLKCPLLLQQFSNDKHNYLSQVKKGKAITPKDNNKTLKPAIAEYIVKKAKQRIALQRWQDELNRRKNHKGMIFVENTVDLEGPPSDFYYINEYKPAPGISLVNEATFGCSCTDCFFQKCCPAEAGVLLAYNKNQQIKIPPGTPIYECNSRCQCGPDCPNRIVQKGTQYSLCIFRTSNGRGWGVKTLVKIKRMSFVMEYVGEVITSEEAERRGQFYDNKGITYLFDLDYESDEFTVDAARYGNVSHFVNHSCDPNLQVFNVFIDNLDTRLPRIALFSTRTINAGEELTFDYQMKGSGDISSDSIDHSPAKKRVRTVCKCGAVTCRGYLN", "assay": "HotSpot KMT activity assay, SUV39H2", "assay_type": "biochemical", "conditions": "10-dose mode, 3-fold dilution starting at 100 µM; read-out: ref. cmpd. IC50 (µM), SUV39H2", "description": "as §2"}, "SUV420H1": {"target": "T4, SUV420H1 (Homo sapiens, UniProt Q4FZB7)", "T4 construct": "SUV420H1-tv2 (residues 2–393); C-terminus; N-terminal GST-tag; GST (N); purchased Reaction Biology Corporation", "T4 sequence (Q4FZB7 2-393 isoform Q4FZB7-2)": "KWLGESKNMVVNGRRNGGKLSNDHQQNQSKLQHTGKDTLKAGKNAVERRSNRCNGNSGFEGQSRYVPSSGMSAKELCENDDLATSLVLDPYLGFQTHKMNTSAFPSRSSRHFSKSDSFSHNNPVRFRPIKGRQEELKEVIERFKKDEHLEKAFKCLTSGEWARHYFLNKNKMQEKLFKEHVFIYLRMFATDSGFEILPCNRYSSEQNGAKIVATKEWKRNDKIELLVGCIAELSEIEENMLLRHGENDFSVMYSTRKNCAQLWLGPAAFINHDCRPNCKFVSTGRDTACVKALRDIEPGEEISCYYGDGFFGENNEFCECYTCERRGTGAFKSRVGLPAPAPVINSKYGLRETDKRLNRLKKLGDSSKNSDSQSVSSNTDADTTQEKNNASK", "assay": "HotSpot KMT activity assay, SUV420H1", "assay_type": "biochemical", "conditions": "10-dose mode, 3-fold dilution starting at 100 µM; read-out: ref. cmpd. IC50 (µM), SUV420H1", "description": "as §2"}, "[1]": {"target": "Mus musculus PRMT6, residues 34–378 (Mus musculus) (UniProt Q6NZB1)", "assay": "crystal structure; cocrystallization of mmPRMT6 with compounds 12a, 12c and 12f, hanging drop vapor diffusion, 293 K, space group P2_(1), two molecules in the asymmetric unit"}, "PRMT7": {"system": "PRMT7", "design": "method as in PMID 25893041", "conditions": "cited from earlier work"}, "PRMT5": {"system": "PRMT5", "design": "method as in PMID 25893041", "conditions": "cited from earlier work"}, "[2]": {"target": "Mus musculus PRMT4 PRMT core (mmPRMT4_(130–487) or mmPRMT4_(130–497)) (Mus musculus) (UniProt Q9WVG6)", "assay": "crystal structure; cocrystallization of mmPRMT4 with compounds 12a-12c and 12f-12h, hanging drop vapor diffusion, 293 K, space group P2_(1)2_(1)2, four monomers in the asymmetric unit"}},
  "note": "pIC50: −log10 of the molar value.",
  "data": [
    {"compound": "CNCCN1CCC(c2cc(CN(C)C(=O)c3cccc(Oc4ccccc4)c3)ccn2)CC1", "note": "[TP-064, reference compound]", "values": [
      {"measurement": "arginine methylation levels in MCF7 cells", "setting": "PRMT4 (MCF7 cells)", "value": "profoundly affected"},
      {"measurement": "proliferation of HEK293T cells", "setting": "HEK293T cells", "value": "no effect was observed"},
      {"measurement": "proliferation of MCF7 cells", "setting": "MCF7 cells", "value": "markedly decreased"},
      {"measurement": "cell death", "setting": "PRMT4 (HEK293T cells)", "value": "led to cell death"}
    ]},
    {"compound": "Nc1ncnc2c1ncn2[C@@H]1O[C@H](CSCC[C@H](N)C(=O)O)[C@@H](O)[C@H]1O", "note": "[SAH, S-5′-adenosyl-L-homocysteine, reference compound]", "values": [
      {"measurement": "IC50", "setting": "SMYD3", "value": 18.7, "unit": "µM"},
      {"measurement": "IC50", "setting": "MLL1 complex", "value": 0.464, "unit": "µM"},
      {"measurement": "IC50", "setting": "SET7/9", "value": 139, "unit": "µM"},
      {"measurement": "IC50", "setting": "SUV39H2", "value": 32.7, "unit": "µM"},
      {"measurement": "IC50", "setting": "SUV420H1", "value": 46.5, "unit": "µM"}
    ]},
    {"compound": "Mus musculus PRMT6, residues 34–378 (from UniProt Q6NZB1 34-378) (domain or fragment)", "values": [
      {"measurement": "stoichiometry N", "setting": "[1]", "value": 2}
    ]},
    {"compound": "CC(C)N(CCCNC(=O)Nc1ccc(C(C)(C)C)cc1)C[C@H]1O[C@@H](n2ccc3c(N)ncnc32)[C@H](O)[C@@H]1O", "note": "[compound 3]", "values": [
      {"measurement": "pIC50", "setting": "PRMT7", "value": 5.12},
      {"measurement": "pIC50", "setting": "PRMT5", "value": 6.28}
    ]},
    {"compound": "Mus musculus PRMT4 PRMT core (mmPRMT4_(130–487) or mmPRMT4_(130–497)) (from UniProt Q9WVG6 130-487) (domain or fragment)", "values": [
      {"measurement": "stoichiometry N", "setting": "[2]", "value": 4}
    ]}
  ]
}
